Consider 13 compounds from patent publication US8658604B2, “Template-fixed beta-hairpin peptidomimetics with protease inhibitory activity” (Polyphor Ltd, priority 2005, dated 2014).

As a reminder, the IC50 is the concentration needed to halve the response being measured.

Where a SMILES comes first, the peptide text is derived from it.

Assay [1] deals with Trypsin, from human pancreas (Homo sapiens, UniProt P07477). The assay is described as follows: Enzymatic assay, trypsin.
Assay [2] deals with T1, Elastase from human neutrophils (Homo sapiens, UniProt P08246).
T1 sequence (P08246 30-267): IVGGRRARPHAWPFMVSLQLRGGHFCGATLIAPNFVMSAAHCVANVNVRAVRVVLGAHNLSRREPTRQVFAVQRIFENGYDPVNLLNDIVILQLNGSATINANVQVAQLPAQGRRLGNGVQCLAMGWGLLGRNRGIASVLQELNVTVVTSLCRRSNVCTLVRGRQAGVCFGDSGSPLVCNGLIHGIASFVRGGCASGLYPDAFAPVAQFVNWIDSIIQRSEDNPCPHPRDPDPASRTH
The assay is described as follows: Enzymatic assay, elastase. Particulars: Elastase IC50.

The target in assay [3] is T2, CathepsinG, from human neutrophils (Homo sapiens, UniProt P08311).
T2 sequence (P08311 21-244): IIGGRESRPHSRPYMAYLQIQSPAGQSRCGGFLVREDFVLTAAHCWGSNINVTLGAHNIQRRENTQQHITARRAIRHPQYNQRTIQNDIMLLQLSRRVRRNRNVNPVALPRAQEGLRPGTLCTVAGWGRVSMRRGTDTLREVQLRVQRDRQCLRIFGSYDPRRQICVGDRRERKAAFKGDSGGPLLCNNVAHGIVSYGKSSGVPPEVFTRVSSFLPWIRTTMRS
In words: Enzymatic assay, cathepsin G. Particulars: Cathepsin G IC50.

For assay [4], the target named is Chymotrypsin, from human pancreas (Homo sapiens, UniProt P17538). In words: Enzymatic assay, chymotrypsin.
Chymotrypsin, from human pancreas, sequence (P17538 19-263): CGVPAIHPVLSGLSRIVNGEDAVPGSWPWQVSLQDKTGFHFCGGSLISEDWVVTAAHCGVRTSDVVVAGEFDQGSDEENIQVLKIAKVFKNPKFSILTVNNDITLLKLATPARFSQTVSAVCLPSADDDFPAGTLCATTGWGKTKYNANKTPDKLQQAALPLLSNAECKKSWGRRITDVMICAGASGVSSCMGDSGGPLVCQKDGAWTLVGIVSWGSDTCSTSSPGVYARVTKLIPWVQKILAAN
The subject of assay [5] is Tryptase, from human lung. The assay is described as follows: Enzymatic assay, tryptase. Particulars: for IC50: read-out: Tryptase IC50.

With `CC[C@H](C)[C@@H]1NC(=O)[C@@H]2CCCN2C(=O)[C@@H]2CCCN2C(=O)[C@H](CC(=O)O)NC(=O)[C@H](CO)NC(=O)[C@H](CCCCN)NC(=O)[C@H]([C@@H](C)O)NC(=O)[C@@H]2CSSC[C@H](NC1=O)C(=O)N[C@@H](CO)C(=O)N1CCC[C@@H]1C(=O)N1[C@@H](c3ccccc3)CC[C@H]1C(=O)N[C@@H](Cc1ccccc1)C(=O)N2` [Ex. 48] (HELM PEPTIDE1{C.S.[dP].[O=C([C@@H]1CC[C@H](c2ccccc2)N1[*:1])[*:2]].F.C.T.K.S.D.P.P.I}$PEPTIDE1,PEPTIDE1,1:R3-6:R3|PEPTIDE1,PEPTIDE1,1:R1-13:R2$$$V2.0), the “Trypsin at 100 μM %” value in assay [1] is 93%. Also, the IC50 is above 100000 nM in assay [2] and 83 nM in assay [3]. In assay [4], the “Chymotrypsin at 100 μM %” value was 3%.
The corresponding values for `CC[C@@H](C)[C@H]1NC(=O)[C@H](CO)NC(=O)[C@@H]2CSSC[C@H](NC(=O)[C@H](Cc3ccccc3)NC(=O)[C@@H]3CCCN3C1=O)C(=O)N[C@@H]([C@@H](C)O)C(=O)N[C@@H](CCCCN)C(=O)N[C@@H](CO)C(=O)N[C@@H](CC(=O)O)C(=O)N1CCC[C@H]1C(=O)N1CCC[C@H]1C(=O)N[C@@H]([C@@H](C)CC)C(=O)N2` [Ex. 50] (HELM PEPTIDE1{F.C.T.K.S.D.P.P.I.C.S.[dI].P}$PEPTIDE1,PEPTIDE1,2:R3-10:R3|PEPTIDE1,PEPTIDE1,1:R1-13:R2$$$V2.0) are 94%, above 100000 nM, 89 nM and 0%.
For the compound `CCCC[C@@H]1NC(=O)[C@@H]2CCCN2C(=O)[C@@H](Cc2ccccc2)NC(=O)[C@H](Cc2ccc(O)cc2)NC(=O)[C@@H]2CSSC[C@H](NC1=O)C(=O)N[C@@H]([C@@H](C)O)C(=O)N[C@@H](C)C(=O)N[C@@H](CO)C(=O)N[C@@H]([C@@H](C)CC)C(=O)N1CCC[C@H]1C(=O)N1CCC[C@H]1C(=O)N[C@@H](CCC(N)=O)C(=O)N2` [Ex. 116] (HELM PEPTIDE1{A.S.I.P.P.Q.C.Y.[dF].P.[Nle].C.T}$PEPTIDE1,PEPTIDE1,7:R3-12:R3|PEPTIDE1,PEPTIDE1,1:R1-13:R2$$$V2.0), the “Trypsin at 100 μM %” value in assay [1] is on record as 0%. The IC50 amounted to 46 nM in assay [2] and 39700 nM in assay [4].
Regarding `CCCC[C@@H]1NC(=O)[C@@H]2CCCN2C(=O)[C@H]2CCCN2C(=O)[C@H](c2ccccc2)NC(=O)[C@@H]2CSSC[C@H](NC1=O)C(=O)N[C@@H]([C@@H](C)O)C(=O)N[C@@H](C)C(=O)N[C@@H](CO)C(=O)N[C@@H]([C@@H](C)CC)C(=O)N1CCC[C@H]1C(=O)N1CCC[C@H]1C(=O)N[C@@H](CCC(N)=O)C(=O)N2` [Ex. 136] (HELM PEPTIDE1{[Nle].C.T.A.S.I.P.P.Q.C.[Phg].[dP].P}$PEPTIDE1,PEPTIDE1,2:R3-10:R3|PEPTIDE1,PEPTIDE1,1:R1-13:R2$$$V2.0), the “Tryptase At 100 μM %” value in assay [5] worked out at 0%. Moreover, in assay [4], the “Chymotrypsin at 100 μM %” value came to 67.9%.
The like results for `CCCC[C@@H]1NC(=O)[C@@H]2CCCN2C(=O)[C@H]2CCCN2C(=O)[C@H](Cc2ccccc2)NC(=O)[C@@H]2CSSC[C@H](NC1=O)C(=O)N[C@@H]([C@@H](C)O)C(=O)N[C@@H](C)C(=O)N[C@@H](CO)C(=O)N[C@@H]([C@@H](C)CC)C(=O)N1CCC[C@H]1C(=O)N1CCC[C@H]1C(=O)N[C@@H](CCC(N)=O)C(=O)N2` [Ex. 137] (HELM PEPTIDE1{[Nle].C.T.A.S.I.P.P.Q.C.F.[dP].P}$PEPTIDE1,PEPTIDE1,2:R3-10:R3|PEPTIDE1,PEPTIDE1,1:R1-13:R2$$$V2.0) were, in that order, 5% and 68.7%.
The corresponding values for `CCCC[C@@H]1NC(=O)[C@@H]2CCCN2C(=O)[C@H]2CCCN2C(=O)[C@H](Cc2ccc(O)cc2)NC(=O)[C@@H]2CSSC[C@H](NC1=O)C(=O)N[C@@H]([C@@H](C)O)C(=O)N[C@@H](C)C(=O)N[C@@H](CO)C(=O)N[C@@H](C1CCCCC1)C(=O)N1CCC[C@H]1C(=O)N1CCC[C@H]1C(=O)N[C@@H](CCC(N)=O)C(=O)N2` [Ex. 140] (HELM PEPTIDE1{[Nle].C.T.A.S.[O=C([C@@H](N[*:1])C1CCCCC1)[*:2]].P.P.Q.C.Y.[dP].P}$PEPTIDE1,PEPTIDE1,2:R3-10:R3|PEPTIDE1,PEPTIDE1,1:R1-13:R2$$$V2.0) are 4.2% and 79.6%.
The corresponding values for `CCCC[C@@H]1NC(=O)[C@H](CC(=O)O)NC(=O)[C@H]2CCCN2C(=O)[C@H](Cc2ccc(O)cc2)NC(=O)[C@@H]2CSSC[C@H](NC1=O)C(=O)N[C@@H]([C@@H](C)O)C(=O)N[C@@H](C)C(=O)N[C@@H](CO)C(=O)N[C@@H]([C@@H](C)CC)C(=O)N1CCC[C@H]1C(=O)N1CCC[C@H]1C(=O)N[C@@H](CCC(N)=O)C(=O)N2` [Ex. 168] (HELM PEPTIDE1{[Nle].C.T.A.S.I.P.P.Q.C.Y.[dP].D}$PEPTIDE1,PEPTIDE1,2:R3-10:R3|PEPTIDE1,PEPTIDE1,1:R1-13:R2$$$V2.0) are 4.6% and 72.9%.
For the compound `CC(C)C[C@@H]1NC(=O)[C@@H]2CCCN2C(=O)[C@H]2CCCN2C(=O)[C@H](CCCNC(=N)N)NC(=O)[C@@H]2CSSC[C@H](NC1=O)C(=O)N[C@@H]([C@@H](C)O)C(=O)N[C@@H](CCCCN)C(=O)N[C@@H](CO)C(=O)N[C@@H](CC(C)C)C(=O)N1CCC[C@H]1C(=O)N1CCC[C@H]1C(=O)N[C@@H](CCCCN)C(=O)N2` [Ex. 191] (HELM PEPTIDE1{L.C.T.K.S.L.P.P.K.C.R.[dP].P}$PEPTIDE1,PEPTIDE1,2:R3-10:R3|PEPTIDE1,PEPTIDE1,1:R1-13:R2$$$V2.0), the IC50 in assay [1] came to 66 nM; in assay [5], 21 nM; in assay [3], 400 nM.
On to `CCCC[C@@H]1NC(=O)[C@@H]2CCCN2C(=O)[C@H]2CCCN2C(=O)[C@H](CCCNC(=N)N)NC(=O)[C@@H]2CSSC[C@H](NC1=O)C(=O)N[C@@H]([C@@H](C)O)C(=O)N[C@@H](CCCCN)C(=O)N[C@@H](CO)C(=O)N[C@@H](CC(C)C)C(=O)N1CCC[C@H]1C(=O)N1CCC[C@H]1C(=O)N[C@@H](CCCCN)C(=O)N2` [Ex. 192] (HELM PEPTIDE1{[Nle].C.T.K.S.L.P.P.K.C.R.[dP].P}$PEPTIDE1,PEPTIDE1,2:R3-10:R3|PEPTIDE1,PEPTIDE1,1:R1-13:R2$$$V2.0), for which the IC50 in assay [1] was found to be 72 nM; in assay [5], 16 nM; in assay [3], 650 nM.
The like results for `CC(C)C[C@@H]1NC(=O)[C@H](CO)NC(=O)[C@H](CCCCN)NC(=O)[C@H]([C@@H](C)O)NC(=O)[C@@H]2CSSC[C@H](NC(=O)[C@H](CCCCN)NC(=O)[C@@H]3CCCN3C(=O)[C@@H]3CCCN3C1=O)C(=O)N[C@@H](CCCNC(=N)N)C(=O)N1CCC[C@@H]1C(=O)N1CCC[C@H]1C(=O)N[C@@H](CC1CCCCC1)C(=O)N2` [Ex. 193] (HELM PEPTIDE1{[Cha].C.T.K.S.L.P.P.K.C.R.[dP].P}$PEPTIDE1,PEPTIDE1,2:R3-10:R3|PEPTIDE1,PEPTIDE1,1:R1-13:R2$$$V2.0) were, in that order, 35 nM, 6 nM and 431 nM.
`CC(C)C[C@@H]1NC(=O)[C@H](CO)NC(=O)[C@H](CCCCN)NC(=O)[C@H]([C@@H](C)O)NC(=O)[C@@H]2CSSC[C@H](NC(=O)[C@H](CCCCN)NC(=O)[C@@H]3CCCN3C(=O)[C@@H]3CCCN3C1=O)C(=O)N[C@@H](CCCNC(=N)N)C(=O)N1CCC[C@@H]1C(=O)N1CCC[C@H]1C(=O)N[C@@H](Cc1ccc(O)cc1)C(=O)N2` [Ex. 194] (HELM PEPTIDE1{Y.C.T.K.S.L.P.P.K.C.R.[dP].P}$PEPTIDE1,PEPTIDE1,2:R3-10:R3|PEPTIDE1,PEPTIDE1,1:R1-13:R2$$$V2.0): the results for the IC50 in assay [1], in assay [5] and in assay [3] were 431 nM, 9 nM and 1570 nM, respectively.
The corresponding values for `CC(C)C[C@@H]1NC(=O)[C@H](CO)NC(=O)[C@H](CCCCN)NC(=O)[C@H]([C@@H](C)O)NC(=O)[C@@H]2CSSC[C@H](NC(=O)[C@H](CCCCN)NC(=O)[C@@H]3CCCN3C(=O)[C@@H]3CCCN3C1=O)C(=O)N[C@@H](CCCNC(=N)N)C(=O)N1CCC[C@@H]1C(=O)N1CCC[C@H]1C(=O)N[C@@H](Cc1c[nH]c3ccccc13)C(=O)N2` [Ex. 195] (HELM PEPTIDE1{W.C.T.K.S.L.P.P.K.C.R.[dP].P}$PEPTIDE1,PEPTIDE1,2:R3-10:R3|PEPTIDE1,PEPTIDE1,1:R1-13:R2$$$V2.0) are 108 nM, 12 nM and 4000 nM.
The corresponding values for `CC(C)C[C@@H]1NC(=O)[C@H](CO)NC(=O)[C@H](CCCCN)NC(=O)[C@H]([C@@H](C)O)NC(=O)[C@@H]2CSSC[C@H](NC(=O)[C@H](CCCCN)NC(=O)[C@@H]3CCCN3C(=O)[C@@H]3CCCN3C1=O)C(=O)N[C@@H](Cc1ccc(O)cc1)C(=O)N1CCC[C@@H]1C(=O)N1CCC[C@H]1C(=O)N[C@@H](CCCNC(=N)N)C(=O)N2` [Ex. 196] (HELM PEPTIDE1{R.C.T.K.S.L.P.P.K.C.Y.[dP].P}$PEPTIDE1,PEPTIDE1,2:R3-10:R3|PEPTIDE1,PEPTIDE1,1:R1-13:R2$$$V2.0) are 70 nM, 52 nM and 2170 nM.
